Results on one compound are retold here after US20170348306A1, “METHODS OF TREATING CANCER” (GLAXOSMITHKLINE LLC, priority 2011, published 2017).

Structures are written as SMILES.

A word on the IC50: it is the concentration needed to halve the response being measured.

Experiment [1] relates to TXNIP and TNFRSF21 expression. The experiment can be described thus: qRT-PCR of H3K27me3-enriched genes. Type of experiment: cell-based, human. The settings on record: 72 hours. How it is done: RNA (2.8 μg) was reverse transcribed with MultiScribe Reverse Transcriptase (Applied BioSystems) according to the manufacturer's recommendations. The resulting cDNA was diluted and used along with TaqMan gene expression assays (Applied Biosystems; GAPDH, Hs03929097_g1; TNFRSF21, Hs00205419_m1; TXNIP, Hs00197750_m1). TaqMan Gene Expression Master Mix (Applied BioSystems), and a ViiA 7 Real-Time PCR System (Applied BioSystems) according to the manufacturer's recommendations to quantify gene expression.
On the technique in general: In qPCR the cycle at which signal appears reflects the starting amount.

Experiment [2] has as its target EZH1 (Homo sapiens, UniProt Q92800). The experiment can be described thus: Inhibition of EZH1 methyltransferase activity. Type of experiment: biochemical. The settings on record: read-out: Ki app.
Experiment [3] has as its system H3K27me3 in DLBCL cell lines. Description: ELISA-based quantitation of H3K27me3 in treated cells. The settings on record: Homo sapiens, EZH2 WT and mutant DLBCL cell lines, 48 hours. How it is done:
Biochemical assays utilized the 5-member PRC2 complex (human Flag-EZH2, EED, SUZ12, AEBP2, RbAp48) containing either WT or mutant EZH2, [^3H-]SAM and the indicated peptide substrate; reactions were incubated for 30 minutes. Global histone modification levels were determined by ELISA or western blot methods using antibodies specific for total histone H3, H3K27me1, H3K27me2, or H3K27me3. Cell proliferation and Caspase-3/7 activity were assessed using CellTiter-Glo and Caspase-Glo 3/7 (Promega), respectively. Gene expression profiling was conducted using Affymetrix Human Genome U133 Plus 2.0 microarrays. Differentially-expressed probe sets were determined by fitting the data to a linear model using the limma statistical package (http://www.bioconductor.org) and carrying out pair-wise contrasts of treated versus control. […] H3K27me3 ChIP reads were aligned using Bowtie (56). […] A custom PERL script was utilized to quantify the average basal H3K27me3 ChIP-seq tag density across gene sets. […]
Following tissue homogenization, tumor tissue lysates were prepared using the Epigentek Histone Extraction kit (OP-0006). […] Luminata Forte substrate (Millipore) was added 5 minutes before chemiluminescence was quantified with an EnVision multi-label plate reader (PerkinElmer). H3K27me3 levels were normalized to total H3 values and IC50 values were determined using a 4-parameter curve fit.
In general terms: ELISA stands for enzyme-linked immunosorbent assay.

Experiment [4] concerns WSU-FSCCL. Description: Cell proliferation assay (6 days, CellTiter-Glo). Particulars: Homo sapiens, 144 h, FL, EZH2 D185H (HET), read-out: AVERAGE GROWTH IC50. Type of experiment: cell-based. The text has this: (§1) Thus, Example 22 and Table 6 better reflect the inhibition of HZH2 inhibitors on cell lines, e.g. the lymphoma cell lines. DLBCL cell lines were the most sensitive to EZH2 inhibition (FIG. 11a). […] Evaluation of GSK126 in additional lymphoma cell lines and extensive genomic and epigenomic characterization will be required to fully elucidate the determinants of sensitivity among lymphoma subtypes.
(§2) Biochemical assays utilized the 5-member PRC2 complex (human Flag-EZH2, EED, SUZ12, AEBP2, RbAp48) containing either WT or mutant EZH2, [^3H-]SAM and the indicated peptide substrate; reactions were incubated for 30 minutes. Global histone modification levels were determined by ELISA or western blot methods using antibodies specific for total histone H3, H3K27me1, H3K27me2, or H3K27me3. Cell proliferation and Caspase-3/7 activity were assessed using CellTiter-Glo and Caspase-Glo 3/7 (Promega), respectively. Gene expression profiling was conducted using Affymetrix Human Genome U133 Plus 2.0 microarrays. Differentially-expressed probe sets were determined by fitting the data to a linear model using the limma statistical package (http://www.bioconductor.org) and carrying out pair-wise contrasts of treated versus control. Significant probe sets were filtered for detection (log2 signal threshold of 8), an average fold-change >2 or <−2, or >1.5 or <−1.5, where indicated, with p-values adjusted for multiple testing correction by FDR (Benjamini Hochberg)<0.1. H3K27me3 ChIP reads were aligned using Bowtie (56). H3K27me3 enrichment peaks were identified using SICER (57) with optimized parameters. A custom PERL script was utilized to quantify the average basal H3K27me3 ChIP-seq tag density across gene sets. All in vivo studies were conducted after review by the Institutional Animal Care and Use Committee at GSK and in accordance with the GSK Policy on the Care, Welfare and Treatment of Laboratory Animals. GSK126 and vehicle were administered to mice intraperitoneally. Two-tailed t-tests were conducted assuming two samples of equal variance.
(§3) The optimal cell seeding was determined empirically for all cell lines by examining the growth of a wide range of seeding densities in a 384-well format to identify conditions that permitted proliferation for 6 days. […] Plates were incubated for 6 days at 37° C. in 5% CO2. Cells were then lysed with CellTiter-Glo (Promega) and chemiluminescent signal was detected with a TECAN Safire2 microplate reader. In addition, an untreated plate of cells was harvested at the time of compound addition (T0) to quantify the starting number of cells. CTG values obtained after the 6 day treatment were expressed as a percent of the T0 value and plotted against compound concentration.

In experiment [5] the test system is SU-DHL-8. Description: Cell proliferation assay (6 days, CellTiter-Glo). Type of experiment: cell-based. Particulars: Homo sapiens, 144 h, DLBCL, EZH2 WT, read-out: AVERAGE GROWTH IC50.
Text: as §1, §2, §3
In general terms: Cellular ATP, detected with luciferase, serves as a proxy for viable cell number.

Experiment [6] relates to HS-SULTAN. Description: Cell proliferation assay (6 days, CellTiter-Glo). Type of experiment: cell-based. The settings on record: Homo sapiens, 144 h, BURKITT, EZH2 WT, read-out: AVERAGE GROWTH IC50.
Text: as §1, §2, §3

For experiment [7], the system named is SU-DHL-5. The experiment can be described thus: Cell proliferation assay (6 days, CellTiter-Glo). Type of experiment: cell-based. The settings on record: Homo sapiens, 144 h, DLBCL, EZH2 WT, read-out: AVERAGE GROWTH IC50.
Text: as §1, §2, §3

The test system of experiment [8] is SC-1. Description: Cell proliferation assay (6 days, CellTiter-Glo). Type of experiment: cell-based. The settings on record: Homo sapiens, 144 h, FL, EZH2 D185H (HET), read-out: AVERAGE GROWTH IC50.
Text: as §1, §2, §3

Experiment [9] deals with DLBCL cell lines. Description: Gene expression profiling (Affymetrix Human Genome U133 Plus 2.0). The settings on record: 72 hours. Type of experiment: cell-based. Here is the method: as §2
Cells (2×10^5/well) were seeded into six-well tissue culture plates in the appropriate cell culture media 24 hours before treatment. […] Cells were collected into Trizol reagent (Invitrogen) and total RNA was isolated via phenol:chloroform extraction and the RNeasy kit (Qiagen) according to the manufacturer's instructions. Total RNA was labeled and hybridized to Affymetrix Human Genome U133 Plus 2.0 oligonucleotide microarrays arrays according to the manufacturer's instructions (Affymetrix, Santa Clara, Calif., USA) at Expression Analysis (Durham, N.C.). […] Principal component and correlation analysis were used to confirm data reproducibility (FIG. 16).
CEL files, corresponding to individual samples, were processed by the Micro Array Suite 5.0 (MASS) algorithm (http://www.affyrmetrix.com/support/index.affx) where signal values were scaled to a target intensity of 500 and log2 transformed. Differentially expressed probe sets were determined by fitting the data to a linear model and carrying out pair-wise contrasts of treated versus control. […]

Sequence of EZH1 (Q92800 whole entry): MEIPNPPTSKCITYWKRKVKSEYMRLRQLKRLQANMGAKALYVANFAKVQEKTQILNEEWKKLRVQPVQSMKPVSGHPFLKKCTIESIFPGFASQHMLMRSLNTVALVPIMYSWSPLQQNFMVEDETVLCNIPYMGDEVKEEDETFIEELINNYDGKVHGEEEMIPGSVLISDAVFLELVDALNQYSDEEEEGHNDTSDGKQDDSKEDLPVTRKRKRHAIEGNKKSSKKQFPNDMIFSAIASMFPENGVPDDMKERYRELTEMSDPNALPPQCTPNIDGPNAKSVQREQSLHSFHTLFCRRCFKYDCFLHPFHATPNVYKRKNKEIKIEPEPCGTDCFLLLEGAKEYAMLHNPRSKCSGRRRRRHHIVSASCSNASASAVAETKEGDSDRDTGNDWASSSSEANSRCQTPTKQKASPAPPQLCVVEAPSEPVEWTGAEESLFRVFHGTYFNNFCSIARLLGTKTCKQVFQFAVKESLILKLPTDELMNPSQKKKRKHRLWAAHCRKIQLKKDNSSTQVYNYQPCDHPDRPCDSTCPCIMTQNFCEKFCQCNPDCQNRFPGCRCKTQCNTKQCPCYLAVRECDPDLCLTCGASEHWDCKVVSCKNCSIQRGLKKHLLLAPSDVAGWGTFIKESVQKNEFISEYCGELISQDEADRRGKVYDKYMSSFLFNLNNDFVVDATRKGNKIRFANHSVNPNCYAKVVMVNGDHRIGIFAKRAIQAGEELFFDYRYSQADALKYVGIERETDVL
Sequence of EZH1 (O75530 whole entry partner): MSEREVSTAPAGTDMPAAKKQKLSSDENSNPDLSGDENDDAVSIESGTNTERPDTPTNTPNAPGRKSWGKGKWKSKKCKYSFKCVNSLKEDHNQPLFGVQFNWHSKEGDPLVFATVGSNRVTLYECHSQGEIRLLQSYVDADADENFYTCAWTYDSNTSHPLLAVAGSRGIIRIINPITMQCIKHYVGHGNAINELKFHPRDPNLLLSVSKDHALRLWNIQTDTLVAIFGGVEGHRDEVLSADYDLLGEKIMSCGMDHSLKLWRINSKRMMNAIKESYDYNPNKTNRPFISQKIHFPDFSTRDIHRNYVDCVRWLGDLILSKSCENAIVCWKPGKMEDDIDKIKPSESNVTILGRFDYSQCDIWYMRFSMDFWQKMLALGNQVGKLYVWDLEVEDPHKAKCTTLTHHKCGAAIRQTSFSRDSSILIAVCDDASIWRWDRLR
Sequence of EZH1 (Q15022 whole entry partner): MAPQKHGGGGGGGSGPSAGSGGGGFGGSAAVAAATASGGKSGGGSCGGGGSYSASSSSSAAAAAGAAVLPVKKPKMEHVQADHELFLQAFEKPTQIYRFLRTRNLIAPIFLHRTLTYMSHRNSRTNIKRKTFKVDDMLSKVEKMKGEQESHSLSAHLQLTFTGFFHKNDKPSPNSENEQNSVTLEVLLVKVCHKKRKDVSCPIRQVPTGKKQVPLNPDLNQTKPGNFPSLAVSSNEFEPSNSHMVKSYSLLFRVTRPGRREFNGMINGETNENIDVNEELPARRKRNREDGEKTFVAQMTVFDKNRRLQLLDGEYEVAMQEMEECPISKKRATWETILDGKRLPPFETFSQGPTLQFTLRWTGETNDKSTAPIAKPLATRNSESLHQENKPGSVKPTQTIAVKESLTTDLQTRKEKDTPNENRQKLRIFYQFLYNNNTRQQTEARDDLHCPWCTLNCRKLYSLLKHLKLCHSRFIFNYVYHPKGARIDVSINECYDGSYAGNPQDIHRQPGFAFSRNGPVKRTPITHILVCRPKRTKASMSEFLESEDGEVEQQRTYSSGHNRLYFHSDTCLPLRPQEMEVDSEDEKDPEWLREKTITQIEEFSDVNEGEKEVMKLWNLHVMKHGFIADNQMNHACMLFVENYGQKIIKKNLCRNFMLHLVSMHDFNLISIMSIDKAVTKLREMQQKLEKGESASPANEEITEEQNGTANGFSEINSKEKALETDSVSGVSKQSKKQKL

As to `CC[C@H](C)n1cc(C)c2c(C(=O)NCc3c(C)cc(C)[nH]c3=O)cc(-c3ccc(N4CCNCC4)nc3)cc21` [GSK126], the “lowest concentration with dose-responsive increases in gene expression” value in experiment [1] (Pfeiffer and KARPAS-422, two H3K27me3-enriched genes) is recorded as 25 nM. Also, the “gene expression changes (qRT-PCR)” value in experiment [1] (Toledo, up to 1 μM GSK126) is “no transcriptional changes”. The Ki in [2] turned out to be 89 nM. Besides, the IC50 was 10 to 252 nM in experiment [3]; 12000 nM in experiment [4]; 3190 nM in experiment [5]; 2280 nM in experiment [6]; 2300 nM in [7]; 3730 nM in [8]. The “up-regulated probe sets common to at least 4 of 5 mutant cell lines” value in experiment [9] (Pfeiffer, KARPAS-422, WSU-DLCL2, SU-DHL-10, SU-DHL-6, 500 nM) came to 35 probe sets. Further, the down-regulated probe sets in [9] (Toledo, 2 μM GSK126) is on record as 10 probe sets. The up-regulated probe sets in experiment [9] (Toledo, 2 μM GSK126) came to 23 probe sets. For the same compound, the “share of up-regulated among gene expression changes” value in [9] (five most sensitive EZH2 mutant cell lines, 500 nM) is 69-95%.
